Measurements as given in patent US20090248141A1, “Shape Memory Polymer Medical Devices” (THE REGENTS OF THE UNIVERSITY OF COLORADO, priority 2006, published 2009).

Assay: Cytotoxicity tests of photoinitiator in polymer system
Format: cell-based
Details: photoinitiator at about 0.01-1 wt % of the polymer system
Procedure: A UV-Lamp (Model B100AP; Black-Ray) was used to photopolymerize the solutions for 10 minutes at an intensity of 10 mW/cm^2. The mould is slowly but constantly rotated during photopolymerization. After processing of all materials, polymers were heat treated at 90° C. for 1 hour to ensure the complete conversion of monomers. The photoinitiator 2,2-dimethoxy-2-phenylacetephenone was used although a variety of other initiators can also be used. […] Glass transition temperature (Tg) and rubbery modulus can be controlled by, for example, changing the weight percent (wt %) of the crosslinker, for example, PEGDMA (Mn 550) as shown in FIG. 9.

Which “biocompatibility of the polymer (cytotoxicity tests)” value does the source give for COC(OC)(C(=O)c1ccccc1)c1ccccc1 [2,2-dimethoxy-2-phenylacetephenone] here?
The value was “should not affect the biocompatibility of the polymer”.
